Columns and labels:
[1] = tested on: human cancer cell lines such as oral carcinoma, melanoma, acute myelogenous leukemia, and cervical cancer; parameters: method as in PMID 15132542, PMID 22128783, PMID 24086701, PMID 19190247; conditions: several human cancer cell lines; cited from earlier work
[2] = tested on: SUP-B15; assay: Cell cycle analysis (PI DNA content, flow cytometry); format: cell-based, human; conditions: SUP-B15, 24 h; silvestrol 5 µM, 8 5 µM, 9 10 µM, 10 5 µM, 12 10 µM, 13 10 µM
Protocol: (§1) The samples were probed with AnnexinV-FITC (Roche/Boehringer Mannheim, Indianapolis, IN, USA) according to the manufacturer’s instructions. KOPN-8 or SUB-P15 cells were plated (1.00 × 10^6 cells/plate) and incubated for 12 h and incubated at 37 °C. Then, cells were treated with compounds or controls for 24 h. Cells were stained with AnnexinV-FITC, PI and the staining profiles were determined with FACScan and Cell-Quest software. For cellular DNA content, the same cell treatment as above was performed. Then, cells were fixed in cold 75% ethanol, treated with RNase and then stained with PI solution (50 µg/mL). Cell cycle distribution was analyzed with the FACSCalibur analyzer (BD Biosciences, Franklin Lakes, NJ, USA) and Cell-Quest software. The percentage of DNA content at different phases of the cell cycle was analyzed with ModFit-software (version 5.0, Verity Software House, Topsham, ME, USA).

[3] = tested on: KOPN-8; assay: as above; format: cell-based, human; conditions: KOPN-8, 24 h; silvestrol 5 µM, 8 5 µM, 9 10 µM, 10 5 µM, 12 10 µM, 13 10 µM
Protocol: as §1

[4] = tested on: MDA-MB-231; assay: Co-localization of probe with organelle trackers, live cell imaging; format: cell-based, human; conditions: live cells, 2 µM
Text: It is important to determine the intracellular accumulation of compound 9 as this may aid in identifying its intracellular interactions. To facilitate these experiments, a series of orthogonal fluorescent organelle markers were used for co-localization studies. The organelle marker set included indicators for the lysosome (Lysotracker Red), the mitochondria (MitoTracker Deep Red), and the endoplasmic reticulum (ER tracker Blue/White). Where applicable, nuclei were stained with Hoechst (Blue). All these markers were compatible with BODIPY-FL (green) to allow for flexible combinations. […] First, to evaluate the accumulation of compound 9a after 30 min treatment at 1 µM, washout experiments were conducted as shown in Figure 7A in the presence of Hoechst nuclear stain. Distinct green specks were observed near the nucleus of the cell.
Co-localization studies were conducted in 8-well chambered coverslips (ibidi GmbH µ-slide # 80826) for MDA-MB-231. Coverslips were first coated with 0.1% Gelatin for 30 min for better cell adherence. Cells were then plated in phenol red free medium at a density of 4 × 10^4 cells per well and incubated at 37 °C overnight. […]

SMILES | IC50 values [1] | cell cycle effect [2] | cell cycle effect [3] | co-localization with endoplasmic reticulum (ER-Tracker Blue/White) [4]
COC(=O)[C@H]1[C@@H](O)[C@@]2(O)c3c(OC)cc(O[C@@H]4O[C@@H]([C@H](O)CO)CO[C@H]4OC)cc3O[C@@]2(c2ccc(OC)cc2)[C@@H]1c1ccccc1 [Silvestrol, reference compound] | low micromolar range | cell arrest in the G1/G0 phase | cell arrest in the G1/G0 phase | 
COC1=CC23CCCN2CCc2cc4c(cc2C3C1OC(=O)CCC1=[N+]2C(=Cc3c(C)cc(C)n3[B-]2(F)F)C=C1)OCO4 (stereo not shown) [9a] |  |  |  | Co-localization of probe 9a with ER-Tracker Blue/White

Source: publication PMC6571673, “Cytostatic and Cytotoxic Natural Products against Cancer Cell Models” (Molecules, 2019)
